Test: gradient 5% acetonitrile 3 min, to 50% in 2 min, to 85% in 15 min, held 3 min, 100 µL/min
Settings: column: Zorbax Extend-C18 2.1 x 50 mm; eluents: water / acetonitrile, 0.1% formic acid
Procedure, shortened: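 Using water and acetonitrile that each contained 0.1% formic acid, mixtures of ~100 pure standards were separated at 100 μL/min on a Zorbax Extend-C18 column (2.1 × 50 mm, 1.8 μm). The HPLC fed a quadrupole time-of-flight mass spectrometer working in positive and negative ionization mode, with dead and dwell volumes of 40 μL and 900 μL. Data were acquired over 3 months. Retention time was read from computationally picked adduct peaks after manual inspection of each.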

| Structure (SMILES) | RP-LC retention time |
| --- | --- |
| COc1ccc(CNC(=O)Cn2ccc3ccc(N4CCOCC4)nc32)cc1 | 831 s |
| CCN(Cc1ccccc1)C(=O)c1ncn2c1C(=O)N(CC)C(C)(C(=O)NC1CCCC1)C2 (stereo not drawn) | 734 s |
| Cc1nc(C)c(C(=O)N2CCC(c3noc(-c4cnccn4)n3)C2)s1 (stereo not drawn) | 632 s |
| COc1ccccc1/C=C/c1nc(-c2ccc3oc(C)nc3c2)no1 | 1080 s |
| Cc1ccccc1CNC(=O)c1nnc(-c2ccc(S(=O)(=O)N3CCC(C)CC3)cc2)o1 | 1100 s |
| Cc1cc(C2CCCN2C(=O)Nc2cccc(Cl)c2C)on1 (stereo not drawn) | 794 s |
| Cc1ccc(C2=NC3(CCN(C(=O)c4ccccc4C)CC3)ON2)cc1 | 855 s |
| O=C(Cn1ccnc1-c1ccnc(N2CCOCC2)c1)N1CCN(c2ccccc2)CC1 | 639 s |
| COc1ccc(CNC(=O)C2CCN(C(=O)c3nn(C)c4c3CN(C(=O)C(C)C)CC4)CC2)cc1 | 662 s |
| c1ccc(-c2nc3ccccc3s2)nc1 | 1010 s |
| O=c1ccn(-c2ccc(F)c(F)c2)nc1-c1nc(-c2cccc(F)c2)no1 | 923 s |
| Cn1nc(C(=O)N2CCOCC2)c2c1CN(C(=O)Cc1ccsc1)C2 | 640 s |
| CCn1ccc2cc(S(=O)(=O)N3CCCC(C(=O)NCCC(C)C)C3)ccc21 (stereo not drawn) | 980 s |
| COc1ccc(-n2ccc(=O)c(-c3nc(-c4cccc(F)c4)no3)n2)cc1 | 868 s |
| Cc1sc(-c2noc(C3CC3)n2)cc1S(=O)(=O)N1CCC(C(=O)NCc2ccco2)CC1 | 945 s |
| CSc1ccccc1CN1CCC(CNC(=O)C(=O)NCc2ccc(F)cc2)CC1 | 595 s |
| CCCC(=O)Nc1cnc(-c2ccc(Cl)cc2)nc1 | 958 s |
| CC(C)c1noc(-c2cc(=O)n(CC(=O)Nc3ccc4c(c3)OCCO4)c3ccccc23)n1 | 941 s |
| COc1ccc(-c2noc(-c3nc(C)no3)n2)cc1 | 920 s |
| COc1cccc(Cn2nc(-c3nc(-c4cccc(Cl)c4)no3)ccc2=O)c1 | 1180 s |

| Structure (SMILES) | RP-LC retention time |
| --- | --- |
| CC1CCN(C(=O)CCCN2C(=O)CCn3nc(-c4cn(C)c5ccccc45)cc32)CC1 | 880 s |
| CC(C)CCNC(=O)c1cccc2c1CCN2C(=O)C1CC1 | 831 s |
| O=C(CSc1nc2ccccc2[nH]c1=O)Nc1ccccc1 | 699 s |
| Cc1c(CNCCc2ccco2)c(C(=O)O)c(C)n1Cc1ccc(F)cc1 | 709 s |
| Cc1ccc2[nH]c(=O)c(CCC(=O)N3CCN(C4CCCCC4)CC3)cc2c1 | 619 s |
| O=C(Cn1nc2c(Oc3cccc(F)c3)nccn2c1=O)Nc1ccccc1 | 810 s |
| COc1cccc2c1OC1(C)CC2C(S(=O)(=O)c2ccc(C(C)C)cc2)C(=O)N1C (stereo not drawn) | 1040 s |
| O=C(c1csc(-c2cnccn2)n1)N1CCN(c2ccccc2Cl)CC1 | 866 s |
| O=C(NCc1ccc(F)cc1)[C@@H]1COCC(=O)N1Cc1ccc(F)cc1 | 791 s |
| CCCNC(=O)C1CCCN(c2nc3ncn(CC(=O)NCCC4=CCCCC4)c(=O)c3s2)C1 (stereo not drawn) | 732 s |
| CCOC(=O)c1ccc(NC(=O)C2CCCN(c3nnc(C)c4c(C)n(-c5ccccc5)nc34)C2)cc1 (stereo not drawn) | 797 s |
| CCc1nc2cccnc2n1CCN1CCN(C(=O)Nc2cc(C)ccc2C)CC1 | 598 s |
| CCn1nc(CNC(=O)c2ccc(C#N)cc2)c2ccccc21 | 808 s |
| CCN1CCN(c2ccc(NC(=O)c3ccc(F)cc3Cl)cn2)C1=O | 742 s |
| CNC(=O)[C@H]1O[C@@H](n2cnc3c(NCc4cccc(I)c4)ncnc32)C(O)C1O (stereo partly drawn) | 721 s |
| Cc1cc(-c2nnc(-c3ccc(F)cc3)o2)c(C)n1CC(=O)NCc1ccccc1 | 920 s |
| CCCN1C(=O)C(CC(=O)NC2CCCC2)Sc2ncccc21 (stereo not drawn) | 741 s |
| Cc1cccc(N2CCN(c3ccc4cc(S(=O)(=O)N5CCCCC5C)ccc4n3)CC2)c1C (stereo not drawn) | 1330 s |
| O=C(CSCc1cnn(-c2ccccc2)c1-n1cccc1)N1CCN(c2ccccn2)CC1 | 690 s |
| O=C(NC1CCN(Cc2ccccc2)CC1)C1CCCN(c2ncc(-c3ccccc3)cn2)C1 (stereo not drawn) | 720 s |

| Structure (SMILES) | RP-LC retention time |
| --- | --- |
| Cc1nnc(-c2cc(NC(=O)c3ccc(F)cc3Cl)c(C)s2)o1 | 865 s |
| COCCN(C)C(=O)c1cn(C2CN(S(=O)(=O)C(C)C)C2)nn1 | 635 s |
| Cc1nc2cc(-c3noc(Cc4cccc5ccccc45)n3)ccc2o1 | 1130 s |
| N#Cc1cccc(S(=O)(=O)N2CCC(c3nnc(C(=O)Nc4ccc5c(c4)OCO5)s3)CC2)c1 | 951 s |
| CCN(Cc1ccccc1)C(=O)c1ncn2c1C(=O)N(C1CC1)C(C)(C(=O)NCc1ccccc1)C2 (stereo not drawn) | 742 s |
| COc1ccc(CNC(=O)Cn2cccc2-c2nnc(-c3ccccc3)o2)cc1 | 862 s |
| O=C(NCc1ccco1)c1cccc2c1CCN2C(=O)c1ccc(F)cc1 | 836 s |
| CCC(C(=O)N1CCn2c(C)nnc2C1)c1ccccc1 (stereo not drawn) | 643 s |
| CCOc1ccc(S(=O)(=O)N2CCCC(C(=O)NCCO)C2)cc1C (stereo not drawn) | 714 s |
| COC(=O)CCNC(=O)C1c2ccccc2C(=O)N(Cc2ccccc2)C12CCCC2 (stereo not drawn) | 840 s |
| C=CCN1C(=O)COc2ccc(-c3nc(NC(=O)c4cccc(C)c4)sc3C)cc21 | 1110 s |
| OC(CNCc1ccc(-c2ccc(F)cc2)o1)c1ccccc1 (stereo not drawn) | 687 s |
| COc1ccc(Cc2noc(Cc3nnc(-c4cccc(Cl)c4)o3)n2)cc1 | 1010 s |
| COc1ccccc1CNC(=O)c1nc(N2CCOCC2)c2c(C)cc(C)nc2n1 | 643 s |
| Cc1nn(C(C)C(=O)NCCCN(C)Cc2ccccc2)c(=O)c2c(C)n(-c3ccccc3)nc12 (stereo not drawn) | 687 s |
| CCOCCCNC(=O)c1nnc(-c2ccc(S(=O)(=O)N3CCOCC3)cc2)o1 | 727 s |
| Cc1cc(C)cc(NC(=O)CSc2ccc(N3CCCC(C(=O)NC4CC4)C3)nn2)c1 (stereo not drawn) | 690 s |
| CCc1ccc(CNC(=O)CN2C(=O)NC3(CCCCC3)C2=O)cc1 | 792 s |
| COc1ccc(CNC(=O)CSc2ccc(N3CCCC(C(=O)NC4CC4)C3)nn2)cc1 (stereo not drawn) | 631 s |

Other lines, results leading:

| RP-LC retention time | Structure (SMILES) |
| --- | --- |
| 692 s | CCOC(=O)c1nc(Nc2ccc(S(=O)(=O)Nc3nc(C)cc(C)n3)cc2)c2ccccc2n1 |
| 677 s | Cc1ncc([N+](=O)[O-])n1CC(O)CCl (stereo not drawn) |
| 638 s | CCN(CC)CCNC(=O)c1sc(COc2ccccc2)nc1C |
| 982 s | O=C(Cn1ccc2ccccc21)N1CCN(c2ccc(C(F)(F)F)cn2)CC1 |
| 683 s | CCCNC(=O)C1CCCN(c2ccc(SCC(=O)Nc3cccc(Cl)c3)nn2)C1 (stereo not drawn) |
| 772 s | COC(=O)c1ncn2c1C(=O)N(Cc1ccccc1F)C(C)(C(=O)NCc1ccc(C)cc1)C2 (stereo not drawn) |
| 605 s | Cc1nc2ccn(Cc3cccnc3)c(=O)c2cc1C(=O)NCCC(C)C |
| 1230 s | Cc1ccc(S(=O)(=O)c2cnc(N3CCN(c4ccccc4Cl)CC3)nc2N)cc1 |
| 871 s | Cn1nccc1-c1cccc(-c2noc(CNC(=O)Cc3ccc(Cl)cc3)n2)c1 |
| 704 s | CCCNc1cc(N2CCC(CCC(=O)Nc3ccccc3)CC2)ncn1 |
| 665 s | Cc1ccc(NC(=O)CN2CCc3[nH]c4c(C)cc(F)cc4c(=O)c3C2)c(Cl)c1 |
| 552 s | c1cc(-c2nc(CC3CCCNC3)no2)ccn1 (stereo not drawn) |
| 786 s | CCn1cc(C(CNC(=O)Nc2cccc(SC)c2)c2cccnc2)c2ccccc21 (stereo not drawn) |
| 804 s | O=C(NC1CCCCC1)C1CCCN(c2ccc(=O)n(-c3ccc(F)cc3)n2)C1 (stereo not drawn) |
| 708 s | CCN(CC)S(=O)(=O)N1CCC(C(=O)Nc2cccc(CCc3nc4ccc(C)cc4[nH]3)c2)CC1 |
| 941 s | CN(CCc1noc(COc2cccc(C(F)(F)F)c2)n1)C(=O)c1cccs1 |
| 848 s | COc1ccc(OCC(=O)N(C)CCc2noc(COc3ccccc3F)n2)cc1 |
| 686 s | CCC(CC)C(=O)N1CCC(N2CCN(CC)C2=O)CC1 |
| 849 s | Cc1cc(N2CCC(NC(=O)Nc3ccc(F)cc3)C2=O)ccc1F (stereo not drawn) |
| 924 s | CCC(=O)N1c2ccc(S(=O)(=O)N3CCCCC3)cc2CC1C(=O)NCc1ccc(Cl)cc1 (stereo not drawn) |
| 679 s | O=C(CCS(=O)(=O)c1ccc(Cl)cc1)Nc1nccs1 |
| 804 s | CCn1ccc2cc(S(=O)(=O)N3CCCC(C(=O)NCCCOC)C3)ccc21 (stereo not drawn) |
| 827 s | CCC(=O)N1CCCc2ccc(NC(=O)c3cccs3)cc21 |
| 674 s | CCN1CCN(Cc2nc(Cn3ccn4nc(-c5ccc(C)c(C)c5)cc4c3=O)no2)CC1 |
| 766 s | COc1ccc(-c2c(C)noc2NC(C)=O)cc1S(=O)(=O)Nc1ccc(Cl)cc1 |
| 634 s | O=C(C1CCN(Cc2cc3ccccc3n2Cc2ccccc2)CC1)N1CCN(C2CCCCC2)CC1 |
| 636 s | Cc1ccn2cc(C(=O)NCc3ccccc3)nc2c1 |
| 711 s | CC(=O)c1cccc(NC(=O)CN2C(=O)NC3(CCCCC3)C2=O)c1 |
| 1140 s | Cc1ccccc1N1CCN(S(=O)(=O)c2cc(-c3nnc(C4CCC4)o3)co2)CC1 |
